The subject of test [1] is Pseudomonas savastanoi pv. savastanoi VKM B-1546. The format is cell-based. Particulars: 300 µM peptide; 30 °C, 24 h, absorbance 594 nm; vs control without peptide; triplicate, mean. As to the method: (§1) The antimicrobial activity of synthetic peptides was tested against a panel of human and plant pathogens. Among them were the yeasts Candida albicans VKM Y-2994 and Cryptococcus neoformans VKM Y-2755, the plant pathogenic bacteria Clavibacter michiganensis subsp. michiganensis VKM Ac-1403, Pseudomonas savastanoi pv. savastanoi VKM B-1546 and Pectobacterium carotovorum subsp. carotovorum VKM B-1247, and four Fusarium species (F. oxysporum VKM F-137, F. culmorum VKM F-2303, F. solani VKM F-142 and F. verticillioides VKM F-670), which cause diseases in plants and humans. The antimicrobial activity was first measured at the peptide concentration of 300 µM (Figure 3).
(§2) The antimicrobial activity of synthetic peptides was tested against the yeasts Candida albicans VKM Y-2994 and Cryptococcus neoformans VKM Y-2755, the bacteria Pseudomonas savastanoi pv. savastanoi VKM B-1546, Pectobacterium carotovorum subsp. carotovorum VKM B-1247 and Clavibacter michiganensis subsp. michiganensis VKM Ac-1403, and four Fusarium species: F. culmorum VKM F-2303, F. oxysporum VKM F-137, F. solani VKM F-142 and F. verticillioides VKM F-670. All cultures were obtained from the All-Russian Collection of Microorganisms (VKM). The details of the production and storage of cultures of microorganisms used in this study are described at the VKM Home page. Antimicrobial assays were accomplished according to the procedure described earlier. In short, yeasts were grown on the YPD-P medium and the bacteria P. carotovorum and Cl. michiganensis were cultured on a modified YPD-P medium. The Fusarium fungi were grown on potato dextrose agar at 25 °C for 7–8 days, and spores were washed off from the surface of the mycelia with sterile, distilled water. The antimicrobial activity of the peptides was measured in immunoassay microtiter plates according to the protocol of Broekaert et al.. With yeasts and bacteria, each well contained 10 µL of the tested peptide solution (final concentrations of 10–300 µM) in water, 80 µL of the medium and 10 µL of the microbial suspension. The plates were incubated at 30 °C for 24 h, and the absorbance of the suspension was measured on an Efos 9305 spectrophotometer (Sapphire, Moscow, Russia) at 594 nm. For Fusarium species, the wells of a microtiter plate were filled with 90 µL of the fungal spore suspension in half-strength potato dextrose broth at a concentration of 2000–3000 spores in 100 µL and 10 µL of aqueous solutions of peptides at final concentrations of 10–300 µM. After 38 h of incubation, the absorbance was recorded at 595 nm on a FilterMax F5 Multi-Mode Microplate Reader (Molecular Devices, San Jose, CA, USA). Antimicrobial activity is expressed in IC50 values, which show the concentration necessary for 50% inhibition of the pathogen growth; this was determined from a graph showing the activity dependence on peptide concentration.
(§3) For each pathogen, experiments on the peptide antimicrobial activity evaluation were carried out in triplicate per treatment. Mean values, standard deviations (SD), and the significance of differences (p ≤ 0.05) of the means between treatments and controls (t-test for independent variables) were determined using STATISTICA v. 6.1 software (StatSoft Inc., Tulsa, OK, USA).

The subject of test [2] is Cr. neoformans cells. As to the kind of experiment: Propidium iodide staining, fluorescence microscopy. Particulars: peptide 300 µM, 30 °C, 1 h, 0.03 mM PI 15 min. The format is cell-based, Cryptococcus neoformans. As to the method:
(§4) Their ability to disturb the integrity of pathogen membranes was assayed by staining with propidium iodide of C. albicans and Cr. neoformans cells preliminarily incubated with the peptides. The results were visualized by fluorescent microscopy and quantified by flow cytometry (Figure 5, Figure 6 and Figure 7).
(§5) Staining of yeast cells with propidium iodide in the presence of the γ-core peptides was carried out according to the protocol described earlier. C. albicans or Cr. neoformans cells (24 h culture in YPD-P at a cell concentration of 2 × 10^8/mL) were incubated with the peptide at a concentration of 300 µM at 30 °C for 1 h. After incubation, 1 mL of the cells was stained with 0.03 mM propidium iodide (Sigma, St. Louis, MO, USA). The staining proceeded for 15 min at 30 °C. The fluorescence was recorded on an AXIO Imager A1 fluorescence microscope (ZEISS, Göttingen, Germany) using a Zeiss filter set 56 HE.

Test [3] deals with C. albicans cells. Briefly: Propidium iodide staining, fluorescence microscopy. In kind it is cell-based, Candida albicans. Particulars: peptide 300 µM, 30 °C, 1 h, 0.03 mM PI 15 min. As to the method:
as §4, §5

The test system of test [4] is Candida albicans VKM Y-2994. The format is cell-based. The conditions noted are these: for Inhibition of C. albicans at the highest tested concentration: inhibition curves (Figure 4), highest tested concentration (300 µM). As to the method: as §1, §2, §3
The subject of test [5] is F. verticillioides VKM F-670. The format is cell-based, Fusarium verticillioides. As to the method: as §1, §2, §3
For test [6], the system named is Pectobacterium carotovorum subsp. carotovorum VKM B-1247. The conditions noted are these: 30 °C, 24 h, absorbance 594 nm. The method, then:
All cultures were obtained from the All-Russian Collection of Microorganisms (VKM).
Mean values, standard deviations (SD), and the significance of differences (p ≤ 0.05) of the means between treatments and controls (t-test for independent variables) were determined using […] v. 6.1 software (StatSoft Inc., Tulsa, OK, USA).

Test [7] relates to Cryptococcus neoformans VKM Y-2755. In kind it is cell-based. As to the method: as §1, §2, §3
The subject of test [8] is Cr. neoformans cells. As to the kind of experiment: Propidium iodide penetration, flow cytometry. In kind it is cell-based, Cryptococcus neoformans. Particulars: 28 °C, 2 h; for Penetration of propidium iodide (PI) into Cr. neoformans cells: peptide 300 µM in water, PI 2 µg/mL, FL2 (488/585 nm); for Number of Cr. neoformans cells in flow cytometry: peptide 300 µM. The method, then: as §4
For flow cytometry experiments with Cr. neoformans, the yeasts were grown on the YPD medium at 28 °C for 48 h. After that, the cells were centrifuged at 12,000× g for 3 min, washed with MiliQ water and incubated with the peptides dissolved in water at a concentration of 300 µM at 28 °C for 2 h. The cells were stained with propidium iodide by direct addition of the dye to the incubation medium (final concentration of 2 µg/mL) and measured on a NovoCyte Flow cytometer (Agilent, Santa Clara, CA, USA) using the channel FL2 (488 nm excitation and 585 nm emission). The sample without peptides was used as a control.

[9] abbreviates: inhibition curves (Figure 4), highest tested concentration (300 µM).

Where a SMILES comes first, the peptide text is derived from it. Where no end group is shown, it is not given here. Bounds are passed on as bounds.

By IC50 is commonly meant the concentration that gives 50% inhibition.

With `CC[C@H](C)[C@H](NC(=O)[C@H](CCCCN)NC(=O)[C@H](CS)NC(=O)[C@H](Cc1ccc(O)cc1)NC(=O)CN)C(=O)N[C@@H](CO)C(=O)N[C@@H](CCCNC(=N)N)C(=O)N[C@@H](CS)C(=O)N[C@H](C(=O)N[C@@H](CS)C(=O)N[C@@H](CCC(N)=O)C(=O)N[C@@H](CCCNC(=N)N)C(=O)N[C@@H](CCC(=O)O)C(=O)N[C@@H](CS)C(=O)O)[C@@H](C)O` [DEFL1-11_55-68] (H-GYCKISRCTCQREC-OH; N-terminus and C-terminus assumed), the “Pathogen inhibition, % (Ps. savastanoi)” value in test [1] was “failed to suppress”.

Turning to `C[C@@H](O)[C@H](NC(=O)[C@H](CS)NC(=O)[C@H](Cc1ccccc1)NC(=O)[C@H](CS)NC(=O)[C@H](CCCNC(=N)N)NC(=O)[C@H](CCCNC(=N)N)NC(=O)[C@H](CCCNC(=N)N)NC(=O)[C@H](Cc1ccccc1)NC(=O)CNC(=O)[C@H](CCCNC(=N)N)NC(=O)[C@H](CS)NC(=O)[C@H](CCCCN)NC(=O)CN)C(=O)N[C@H](C(=O)N[C@@H](Cc1c[nH]cn1)C(=O)N[C@@H](CS)C(=O)N[C@@H](Cc1c[nH]cn1)C(=O)N[C@@H](Cc1c[nH]cn1)C(=O)O)[C@@H](C)O` [DEFL1-16_65-82] (H-GKCRGFRRRCFCTTHCHH-OH; N-terminus and C-terminus assumed), the “Membrane permeabilization of Cr. neoformans cells (PI staining)” value in test [2] was “induced membrane permeabilization”. The “Membrane permeabilization of C. albicans cells (PI staining)” value in test [3] was “induced membrane permeabilization”.

`C[C@@H](O)[C@H](NC(=O)[C@H](CS)NC(=O)[C@H](CCCNC(=N)N)NC(=O)[C@H](CCCNC(=N)N)NC(=O)[C@H](Cc1ccccc1)NC(=O)[C@H](CCCCN)NC(=O)[C@H](CS)NC(=O)[C@H](Cc1ccc(O)cc1)NC(=O)CN)C(=O)N[C@@H](CS)C(=O)N[C@@H](CCC(N)=O)C(=O)N[C@@H](CCCNC(=N)N)C(=O)N[C@@H](CCC(=O)O)C(=O)N[C@@H](CS)C(=O)O` [DEFL1-32_55-68] (H-GYCKFRRCTCQREC-OH; N-terminus and C-terminus assumed): the “Inhibition of C. albicans at the highest tested concentration” value in test [4] was found to be 92%. For the same compound, the “Membrane permeabilization of Cr. neoformans cells (PI staining)” value in test [2] is listed as “induced membrane permeabilization”. Also, the “Membrane permeabilization of C. albicans cells (PI staining)” value in test [3] is recorded as “induced membrane permeabilization”.

Take `CC(C)C[C@H](NC(=O)[C@H](CCCNC(=N)N)NC(=O)[C@H](Cc1c[nH]cn1)NC(=O)[C@H](CO)NC(=O)[C@H](CC(N)=O)NC(=O)[C@H](CS)NC(=O)[C@H](CCC(=O)O)NC(=O)CN)C(=O)N[C@@H](CCC(=O)O)C(=O)N[C@@H](CCCNC(=N)N)C(=O)N[C@@H](CCCCN)C(=O)N[C@@H](CS)C(=O)N[C@@H](Cc1ccccc1)C(=O)N[C@@H](CS)C(=O)N[C@@H](CCCCN)C(=O)N[C@@H](CCCNC(=N)N)C(=O)N[C@H](C(=O)N[C@@H](CS)C(=O)O)[C@@H](C)O` [DEFL1-40_65-82] (H-GECNSHRLERKCFCKRTC-OH): the “Pathogen inhibition, % (C. albicans)” value in test [4] (300 µM peptide, YPD-P medium, 30 °C, 24 h, absorbance 594 nm, vs control without peptide, triplicate, mean) was “failed to suppress”.

Regarding `C[C@H](NC(=O)[C@@H](N)CS)C(=O)NCC(=O)N[C@@H](CCCNC(=N)N)C(=O)NCC(=O)N[C@@H](CCC(N)=O)C(=O)N1CCC[C@H]1C(=O)N[C@@H](Cc1ccc(O)cc1)C(=O)N[C@H](C(=O)NCC(=O)N[C@@H](CO)C(=O)NCC(=O)N[C@@H](CS)C(=O)O)[C@@H](C)O` [DEFL4-8_82-94] (H-CAGRGQPYTGSGC-OH; N-terminus and C-terminus assumed), the “Maximum inhibition of F. verticillioides at the highest tested concentration” value in test [5] (setting [9]) is given as 26%. Also, the 50% inhibitory concentration (IC50) in test [5] (peptide 10–300 µM, 38 h, absorbance 595 nm, from activity vs concentration graph, mean ± SD) is greater than 100 µM; in test [6] (read-out: IC50, μM P. carotovorum, peptide 10–300 µM, from activity vs concentration graph, mean ± SD) it was greater than 100 µM. In addition, the “Pathogen inhibition, % (P. carotovorum)” value in test [6] (300 µM peptide, modified YPD-P medium, vs control without peptide, triplicate, mean) amounted to 42%.

As for `CC(C)[C@H](NC(=O)[C@H](CS)NC(=O)[C@H](CCCNC(=N)N)NC(=O)CNC(=O)CNC(=O)[C@H](CS)NC(=O)[C@H](CS)NC(=O)[C@@H]1CCCN1C(=O)[C@H](Cc1ccccc1)NC(=O)[C@@H](NC(=O)[C@@H](NC(=O)[C@H](CCCNC(=N)N)NC(=O)[C@H](CS)NC(=O)[C@@H](N)CCCCN)[C@@H](C)O)[C@@H](C)O)C(=O)O` [Tk-AMP-K2_10-23] (H-KCRTTFPCCGGRCV-OH; N-terminus and C-terminus assumed), the “Inhibition of Cr. neoformans at the highest tested concentration” value in test [7] (setting [9]) is recorded as “complete inhibition”. Also, in test [8], the “Penetration of propidium iodide (PI) into Cr. neoformans cells” value is recorded as 66.86% and the “Number of Cr. neoformans cells in flow cytometry” value is reported as “reduction in the number of Cr. neoformans cells”. Further, the “Membrane permeabilization of Cr. neoformans cells (PI staining)” value in test [2] is “induced membrane permeabilization”. In test [3], the “Membrane permeabilization of C. albicans cells (PI staining)” value is “induced membrane permeabilization”.

Consider `CSCC[C@H](NC(=O)[C@H](CS)NC(=O)[C@H](C)NC(=O)CNC(=O)[C@H](CCCNC(=N)N)NC(=O)[C@H](CCCCN)NC(=O)[C@H](C)NC(=O)[C@H](CCCNC(=N)N)NC(=O)[C@H](CO)NC(=O)[C@H](CCCNC(=N)N)NC(=O)[C@H](C)NC(=O)[C@H](CS)NC(=O)[C@H](CCCNC(=N)N)NC(=O)[C@@H](NC(=O)[C@H](C)NC(=O)[C@H](CS)NC(=O)[C@H](CCCCN)NC(=O)CN)C(C)C)C(=O)N[C@@H](CCCCN)C(=O)O` [TkSN1_39-57] (H-GKCAVRCARSRAKRGACMK-OH; N-terminus and C-terminus assumed), for which the “Inhibition of C. albicans at the highest tested concentration” value in test [4] is given as “complete inhibition”. Further, the “Membrane permeabilization of Cr. neoformans cells (PI staining)” value in test [2] is “induced membrane permeabilization”. For the same compound, the “Membrane permeabilization of C. albicans cells (PI staining)” value in test [3] is on record as “induced membrane permeabilization”.

As to AGHGKRYTGRG [HvDEFL4-1_67-77], in test [8], the “Penetration of propidium iodide (PI) into Cr. neoformans cells” value stood at 37.84% and the “Number of Cr. neoformans cells in flow cytometry” value was “reduction in the number of Cr. neoformans cells”. For the same compound, the “Membrane permeabilization of Cr. neoformans cells (PI staining)” value in test [2] is “induced membrane permeabilization”. Further, the “Membrane permeabilization of C. albicans cells (PI staining)” value in test [3] is recorded as “induced membrane permeabilization”.

Regarding PARGRPYTGRA [DEFL4-37_91-101], the “Activity against Cr. neoformans relative to DEFL4-37_90-102” value in test [7] (300 µM (Figure 3), times less active) is reported as 10 times.

These data come from publication PMC9368981, “The γ-Core Motif Peptides of AMPs from Grasses Display Inhibitory Activity against Human and Plant Pathogens” (International Journal of Molecular Sciences, 2022).
